Test results published in the METLIN SMRT retention time set (Domingo-Almenara et al. 2019).

Assay: gradient 5% acetonitrile 3 min, to 50% in 2 min, to 85% in 15 min, held 3 min, 100 µL/min
Conditions: column: Zorbax Extend-C18 2.1 x 50 mm; eluents: water / acetonitrile, 0.1% formic acid
Method in brief: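 Using water and acetonitrile that each contained 0.1% formic acid, mixtures of ~100 pure standards were separated at 100 μL/min on a Zorbax Extend-C18 column (2.1 × 50 mm, 1.8 μm). The HPLC fed a quadrupole time-of-flight mass spectrometer working in positive and negative ionization mode, with dead and dwell volumes of 40 μL and 900 μL. Data were acquired over 3 months. Retention time was read from computationally picked adduct peaks after manual inspection of each.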

| Structure (SMILES) | RP-LC retention time |
| --- | --- |
| O=C(Nc1nnc(C2CC(=O)N(c3ccccc3)C2)o1)c1ccccc1Cl (stereo not given) | 807 s |
| O=C(Nc1nnc(Cc2cccs2)o1)c1cc(Cl)sc1Cl | 831 s |
| CCOc1ccc(-c2noc(CN3N=NC4C(=O)N(c5ccc(CC)cc5)C(=O)C43)n2)cc1OC (stereo not given) | 1030 s |
| CC1(C)CC(=O)c2cn(-c3ccccc3)c(=O)c(C(=O)N3CCc4ccccc43)c2C1 | 910 s |
| Cc1ccn2cc(-c3ccc(NC(=O)c4ccc(Br)cc4)cc3)nc2n1 | 698 s |
| O=C(NC1CC1)c1cc(=O)[nH]c2ccccc12 | 587 s |
| Cc1cc(C)cc(N2CCC(NC(=O)c3cccs3)C2=O)c1 (stereo not given) | 842 s |
| CCn1cnc2cc(-c3noc(C4CC(=O)N(c5ccccc5)C4)n3)ccc21 (stereo not given) | 664 s |
| COCCCNC(=O)C1CCN(c2cnc3nc(C)c(C)nc3c2)CC1 | 574 s |
| O=C(CC1CCN(C(=O)c2cc3ccccc3[nH]2)CC1)NCCN1CCCC1 | 559 s |
| CCc1cc(C(=O)Nc2cccc(C)c2C)nc2ccnn12 | 1150 s |
| O=C(CSc1ncnc2c1cnn2-c1ccc(F)cc1)Nc1nc2ccccc2s1 | 1020 s |
| O=C(c1cc2c(s1)CCC(C(=O)N1CCN(c3ccccn3)CC1)C2)N1CCOCC1 (stereo not given) | 582 s |
| CC(C)C(=O)N1N=C(c2ccc(NS(=O)(=O)c3ccccc3)cc2)CC1c1ccco1 (stereo not given) | 870 s |
| CN1c2ccccc2C(=O)NC12CCN(C(=O)c1cccc(Cl)c1)CC2 | 756 s |
| CCOC(=O)c1ccc(N2C=C(C#N)S(=O)(=O)c3ccc(F)cc32)cc1 | 972 s |
| COc1cc(OC)cc(-c2nnc(Cc3nc(-c4cccc(C)c4)no3)o2)c1 | 1080 s |
| O=C(Cc1csc(-c2ccccc2)n1)Nc1nc(-c2ccc3c(c2)CCCC3)cs1 | 764 s |

| Structure (SMILES) | RP-LC retention time |
| --- | --- |
| Cc1nn(CC(=O)NCCN2CCOCC2)c(=O)c2c(-n3cccc3)n(-c3ccc(F)cc3)nc12 | 654 s |
| CC(=O)c1cccc(NC2=NS(=O)(=O)C(c3cccc(Cl)c3)=C2C)c1 | 902 s |
| CC1CCN(c2nnc(-c3nc(C4CC4)no3)c3ccccc23)CC1 | 1140 s |
| O=C1Nc2ccccc2SC1C(=O)N1CCC(C(=O)N2CCN(c3ccc(F)cc3)CC2)CC1 (stereo not given) | 778 s |
| COc1ccc(-c2nc(NC(=O)CS(=O)(=O)c3ccc(C)cc3)sc2C)cc1 | 1010 s |
| CCCCN(Cc1ccco1)C(=O)Cn1nc(Cc2cccnc2)c2ccccc2c1=O | 701 s |
| C=CCNC(=O)Cc1c(C)n(C)c2nc(-c3ccccc3)nn2c1=O | 663 s |
| COc1ccc(CN2C=C(C(=O)OCc3nc(-c4cccc(OC)c4)no3)C(C)=NS2(=O)=O)cc1 | 1130 s |
| Cc1nn(-c2ccccc2)c(C)c1S(=O)(=O)N1CCC(C(=O)Nc2ccccc2Cl)CC1 | 995 s |
| CCn1cc(-c2nc(C(=O)N3CCN(c4ccc(OC)cc4)CC3)cs2)c2cccnc21 | 887 s |
| CCOCc1nc(C2CCCN2S(=O)(=O)c2c(C)nn(C)c2C)no1 (stereo not given) | 691 s |
| O=C(CN1c2ccccc2NC2=C(C(=O)CCC2)C1c1ccco1)Nc1ccc(F)cc1 (stereo not given) | 1070 s |
| Cc1nc2c(C)cccn2c(=O)c1NC(=O)COc1ccc(Cl)cc1Cl | 838 s |
| COc1cc(Cl)c(NC(=O)C2CCCN(c3nc4ccccc4nc3OC)C2)c(OC)c1 (stereo not given) | 1250 s |
| COc1ccc(-c2noc(-c3nn(-c4ccc(Cl)cc4)ccc3=O)n2)cc1 | 877 s |
| CCOc1ccc(-c2cc3c(=O)n(Cc4nc(-c5cccc(C)c5)no4)ncn3n2)cc1 | 1210 s |
| COc1ccc(-c2nc(C)c3c(n2)N(Cc2ccco2)C(=O)CC3)cc1 | 975 s |
